Values belong to the molecule of their own block, whether it stands above or below them.
Legend:
[1] = Critical aggregation concentration of compound by dynamic light scattering; assay type: physicochemical
[2] = Partition coefficient, log P of the compound; assay type: physicochemical; details: octanol/water
[3] = Chemical stability of the compound in presence of 10% FBS or human blood; assay type: physicochemical
[4] = Chemical stability of the compound in pH 7.4 phosphate buffer assessed as drug decomposition in serum-free medium measured within 30 mins; assay type: physicochemical
HeLa = test: Antiproliferative activity against human HeLa cells; assay type: functional, cell-based
Mus musculus = test: Antiinflammatory activity in C57BL/6 mouse assessed as reduction in LPS-induced inflammatory mortality by measuring mouse survival rate at 10 mg/kg, iv preincubated for 15 mins followed by LPS stimulation and measured at 24 hrs interval for 7 days relative to control; assay type: functional
Homo sapiens [5] = organism: Homo sapiens; test: Selectivity ratio of Ki for human carbonic anhydrase 9 to Ki for human carbonic anhydrase 2
Homo sapiens [6] = organism: Homo sapiens; test: Selectivity ratio of Ki for human carbonic anhydrase 12 to Ki for human carbonic anhydrase 9
Tyrosinase = biological target: T1, Tyrosinase (Agaricus bisporus, UniProt O42713); test: Inhibition of mushroom tyrosinase preincubated for 10 mins followed by L-DOPA addition and measured for 1 mins by spectrophotometric assay
T1 sequence (O42713 whole entry): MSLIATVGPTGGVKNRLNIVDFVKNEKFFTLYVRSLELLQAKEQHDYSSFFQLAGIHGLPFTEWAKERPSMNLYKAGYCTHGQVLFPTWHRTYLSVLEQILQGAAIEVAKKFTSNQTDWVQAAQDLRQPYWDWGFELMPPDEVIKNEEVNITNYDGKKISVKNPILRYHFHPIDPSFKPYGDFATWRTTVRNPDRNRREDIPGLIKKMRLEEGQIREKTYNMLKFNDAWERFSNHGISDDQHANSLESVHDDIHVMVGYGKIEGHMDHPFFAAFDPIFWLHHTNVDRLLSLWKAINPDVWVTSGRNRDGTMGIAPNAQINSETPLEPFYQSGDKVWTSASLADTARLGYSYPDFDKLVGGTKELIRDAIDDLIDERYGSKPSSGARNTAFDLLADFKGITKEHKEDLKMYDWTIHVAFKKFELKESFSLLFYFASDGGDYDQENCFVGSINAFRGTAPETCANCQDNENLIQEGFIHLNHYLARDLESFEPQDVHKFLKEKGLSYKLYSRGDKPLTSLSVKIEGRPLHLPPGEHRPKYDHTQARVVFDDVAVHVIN

CAC [1]: 17 µM
logP [2]: 2.3 to 2.6
Compound: COc1cc(/C=C/C(=O)CC(=O)/C=C/c2ccc(O)c(OC)c2)ccc1O [CURCUMIN]
Stability [3]: < 50%
Drug degradation [4]: < 90%

Ratio Ki (Homo sapiens [5]): 3
Ratio Ki (Homo sapiens [6]): 70
Compound: COc1ccc(/C=C/C(=O)/C=C/c2ccc(S(N)(=O)=O)cc2)cc1OC

Ratio Ki (Homo sapiens [5]): 9
Ratio Ki (Homo sapiens [6]): 9
Compound: COc1ccc(OC)c(/C=C/C(=O)/C=C/c2ccc(S(N)(=O)=O)cc2)c1

Continued, molecule first:

Compound: COc1ccc(/C=C/C(=O)/C=C/c2ccc(OCCN3CCCCC3)c(OC)c2)cc1OC
IC50 (HeLa): 0.7 µM

Compound: O=C(/C=C/c1ccccc1O)/C=C/c1ccccc1Br
Activity (Mus musculus): 60%

Compound: O=C1/C(=C/c2ccc(O)cc2)CC/C1=C\c1ccc(O)cc1O
IC50 (Tyrosinase): 1.74 µM

Reference: ChEMBL document CHEMBL4402533 (Eur J Med Chem, 2019)
